Measurements: patent US20240016812A1, “COMPOSITION FOR PREVENTING, ALLEVIATING OR TREATING CANCER” (CKP Therapeutics, Inc., priority 2021, published 2024)

Columns and labels:
YUMC-H2 cell line [1] = assay: MTT cell viability of anticancer drug-resistant cancer cell line; type: cell-based, human; details: 200 μM, drug alone
YUMC-H2 cell line [2] = details: YUMC-H2 xenograft mice; oral, 13 times for 41 days; doses of Table 3
Protocol: (§1) 15 days after injection of each of the cell lines, when the tumor volume reached about 100 to 200 mm^3, mice having a tumor with the above volume were randomly grouped (n=10/group), and then each drug was administered to the mice 13 times for a total of 41 days under the conditions shown in Table 3 below. Then, the changes in tumor volume during this administration were measured, and the results of the measurement are shown in FIG. 3. In addition, the tumor was extracted and the net weight of the tumor was measured, and the results of the measurement are shown in FIG. 4. Here, nothing was administered to the control group.

YUMC-P1 cell line [3] = details: YUMC-P1 xenograft mice; oral, 13 times for 41 days; doses of Table 3
Protocol: as §1

YUMC-P1 cell line [4] = assay: MTT cell viability of anticancer drug-resistant cancer cell line; type: cell-based, human; details: 200 μM, drug alone
YUMC-C1 cell line [5] = details: 200 μM, drug alone
Protocol: Each of the YUMC-C1, YUMC-H2 and YUMC-P1 cell lines of Example 1 was inoculated into 96-well plates at a density of 6×10^3 cells/well and then cultured overnight to a confluence of 90%. […] However, when hydroflumethiazide was used in combination with oxaliplatin or sorafenib, the treatment concentration of each of oxaliplatin and sorafenib was 30 μM. Thereafter, cell viability was measured using the MTT reagent. The absorbance was measured at 550 nm, and viable cells were counted using trypan blue staining.

YUMC-C1 cell line [6] = details: YUMC-C1 xenograft mice; oral, 13 times for 41 days; doses of Table 3; vs control group
Protocol: as §1

SMILES	cells survived (YUMC-H2 cell line [1])	net tumor weight (YUMC-H2 cell line [2])	tumor volume (YUMC-H2 cell line [2])	net tumor weight (YUMC-P1 cell line [3])	tumor volume (YUMC-P1 cell line [3])	cells survived (YUMC-P1 cell line [4])	cells survived (YUMC-C1 cell line [5])	net tumor weight (YUMC-C1 cell line [6])	tumor volume (YUMC-C1 cell line [6])
CNC(=O)c1cc(Oc2ccc(NC(=O)Nc3ccc(Cl)c(C(F)(F)F)c3)cc2)ccn1 [sorafenib]	more than 80%	no significant changes	no significant changes	no significant changes	no significant changes	more than 80%			
O=C1[O][Pt]2([NH][C@@H]3CCCC[C@H]3[NH]2)[O]C1=O [oxaliplatin]							more than 80%	did not significantly decrease	did not significantly decrease
